In patent US10556884B2, “Pesticidally active heterocyclic derivatives with sulphur containing substituents” (SYNGENTA PARTICIPATIONS AG, priority 2015, dated 2020):
Like-named read-outs stand apart in the source and are kept apart here.

What was measured:
[1] = test system: Myzus persicae (Green Peach Aphid); assay: Myzus persicae feeding/contact activity, sunflower leaf discs; assay type: in vivo; settings: foliar, 144 h
Protocol: Example B5: Myzus persicae (Green Peach Aphid): Feeding/Contact Activity
(§1) Sunflower leaf discs were placed onto agar in a 24-well microtiter plate and sprayed with aqueous test solutions prepared from 10′000 ppm DMSO stock solutions. After drying, the leaf discs were infested with an aphid population of mixed ages. The samples were assessed for mortality 6 days after infestation.

[2] = test system: Myzus persicae (Green Peach Aphid); assay: Myzus persicae systemic activity, pea seedlings; assay type: in vivo; settings: 144 h, test rate of 24 ppm, 6 days after placing seedlings into test solutions
[3] = test system: Thrips tabaci (Onion Thrips); assay: Thrips tabaci feeding/contact activity, sunflower leaf discs; assay type: in vivo; settings: foliar, 144 h, application rate of 200 ppm, population of mixed ages, 6 days after infestation
Protocol: Example B11: Thrips tabaci (Onion Thrips) Feeding/Contact Activity
as §1, with “on” for “onto”, “in” for “in a”, “plates” for “plate”, “drying” for “drying,”, “a thrips” for “an aphid”

[4] = test system: Diabrotica Balteata (Corn Root Worm); assay: Diabrotica balteata L2 larvae on maize sprouts; assay type: in vivo; settings: 96 h, read-out: effect in at least one of the two categories (mortality or growth inhibition); for percent effect (mortality or growth inhibition) at 200 ppm: application rate of 200 ppm, L2 larvae, 4 days after infestation
Protocol: Example B2: Diabrotica Balteata (Corn Root Worm)
Maize sprouts placed onto an agar layer in 24-well microtiter plates were treated with aqueous test solutions prepared from 10′000 ppm DMSO stock solutions by spraying. After drying, the plates were infested with L2 larvae (6 to 10 per well). The samples were assessed for mortality and growth inhibition in comparison to untreated samples 4 days after infestation.

[5] = test system: Spodoptera littoralis (Egyqptian Cotton Leaf Worm); assay: Spodoptera littoralis L1 larvae on sprayed cotton leaf discs; assay type: in vivo; settings: foliar, 72 h, read-out: control (mortality, anti-feeding effect, growth inhibition)
Protocol: Example B8: Spodoptera littoralis (Egyqptian Cotton Leaf Worm)
Cotton leaf discs were placed onto agar in 24-well microtiter plates and sprayed with aqueous test solutions prepared from 10′000 ppm DMSO stock solutions. After drying the leaf discs were infested with five L1 larvae. The samples were assessed for mortality, anti-feeding effect, and growth inhibition in comparison to untreated samples 3 days after infestation. Control of Spodoptera littoralis by a test sample is given when at least one of the categories mortality, anti-feedant effect, and growth inhibition is higher than the untreated sample.

[6] = test system: Plutella xylostella (Diamond Back Moth); assay: Plutella xylostella L2 larvae on artificial diet; assay type: in vivo; settings: 120 h, read-out: effect in at least one of the two categories (mortality or growth inhibition); for percent effect (mortality or growth inhibition) at 200 ppm: application rate of 200 ppm, L2 larvae, 5 days after infestation
Protocol: Example B7: Plutella xylostella (Diamond Back Moth)
24-well microtiter plates with artificial diet were treated with aqueous test solutions prepared from 10′000 ppm DMSO stock solutions by pipetting. After drying, the plates were infested with L2 larvae (10 to 15 per well). The samples were assessed for mortality and growth inhibition in comparison to untreated samples 5 days after infestation.

[7] = application rate of 200 ppm, feeding/contact, population of mixed ages, 6 days after infestation, read-out: mortality
[8] = application rate of 200 ppm, L1 larvae, 3 days after infestation

Structure (SMILES)	mortality at 200 ppm [1, 7] [%]	mortality at 24 ppm [2] [%]	other results
CCSc1cc(NC(=O)C2CC2)cnc1-c1nnc(-c2cc(C(F)(F)F)ccn2)n1C [A1, N-[5-ethylsulfanyl-6-[4-methyl-5-[4-(trifluoromethyl)-2-pyridyl]-1,2,4-triazol-3-yl]-3-pyridyl]cyclopropanecarboxamide]	≥ 80		
CCS(=O)(=O)c1cc(C=O)cnc1-c1nnc(-c2cc(C(F)(F)F)ccn2)n1C [A3, 5-ethylsulfonyl-6-[4-methyl-5-[4-(trifluoromethyl)-2-pyridyl]-1,2,4-triazol-3-yl]pyridine-3-carbaldehyde]	≥ 80	≥ 80	
CCS(=O)(=O)c1cc(C(C)=O)cnc1-c1nnc(-c2cc(C(F)(F)F)ccn2)n1C [A4, 1-[5-ethylsulfonyl-6-[4-methyl-5-[4-(trifluoromethyl)-2-pyridyl]-1,2,4-triazol-3-yl]-3-pyridyl]ethanone]		≥ 80	
CCS(=O)(=O)c1ccc(NC2CC2)nc1-c1nnc(-c2cc(C(F)(F)F)ccn2)n1C [A5, N-cyclopropyl-5-ethylsulfonyl-6-[4-methyl-5-[4-(trifluoromethyl)-2-pyridyl]-1,2,4-triazol-3-yl]pyridin-2-amine]	≥ 80	≥ 80	
CCS(=O)(=O)c1ccc(N(C)C(=O)C2CC2)nc1-c1nnc(-c2cc(C(F)(F)F)ccn2)n1C [A8, N-[5-ethylsulfonyl-6-[4-methyl-5-[4-(trifluoromethyl)-2-pyridyl]-1,2,4-triazol-3-yl]-2-pyridyl]-N-methyl-cyclopropanecarboxamide]	≥ 80	≥ 80	mortality at 200 ppm [3]: ≥ 80%; percent effect (mortality or growth inhibition) at 200 ppm [4]: ≥ 80%; mortality at 200 ppm [5, 8]: ≥ 80%; percent effect (mortality or growth inhibition) at 200 ppm [6]: ≥ 80%
CCS(=O)(=O)c1cc(N(C)C2CC2)cnc1-c1nnc(-c2cc(C(F)(F)F)ccn2)n1C [A10, N-cyclopropyl-5-ethylsulfonyl-N-methyl-6-[4-methyl-5-[4-(trifluoromethyl)-2-pyridyl]-1,2,4-triazol-3-yl]pyridin-3-amine]	≥ 80		mortality at 200 ppm [5, 8]: ≥ 80%
CCS(=O)(=O)c1ccc(N(C)C2CC2)nc1-c1nnc(-c2cc(C(F)(F)F)ccn2)n1C [A11, N-cyclopropyl-5-ethylsulfonyl-N-methyl-6-[4-methyl-5-[4-(trifluoromethyl)-2-pyridyl]-1,2,4-triazol-3-yl]pyridin-2-amine]	≥ 80	≥ 80	
CCS(=O)(=O)c1cc(N(C)S(C)(=O)=O)cnc1-c1nnc(-c2cc(C(F)(F)F)ccn2)n1C [A12, N-[5-ethylsulfonyl-6-[4-methyl-5-[4-(trifluoromethyl)-2-pyridyl]-1,2,4-triazol-3-yl]-3-pyridyl]-N-methyl-methanesulfonamide]	≥ 80	≥ 80	
CCS(=O)(=O)c1cc(NS(C)(=O)=O)cnc1-c1nnc(-c2cc(C(F)(F)F)ccn2)n1C [A14, N-[5-ethylsulfonyl-6-[4-methyl-5-[4-(trifluoromethyl)-2-pyridyl]-1,2,4-triazol-3-yl]-3-pyridyl]methanesulfonamide]			melting point: 228 to 230 °C
CCS(=O)(=O)c1cc(C(=O)N(C)C2CC2)cnc1-c1nnc(-c2cc(C(F)(F)F)ccn2)n1C [A16, N-cyclopropyl-5-ethylsulfonyl-N-methyl-6-[4-methyl-5-[4-(trifluoromethyl)-2-pyridyl]-1,2,4-triazol-3-yl]pyridine-3-carboxamide]			melting point: 235 to 237 °C
CCS(=O)(=O)c1ccc(C(=O)NC2CC2)nc1-c1nnc(-c2cc(C(F)(F)F)ccn2)n1C [A19, N-cyclopropyl-5-ethylsulfonyl-6-[4-methyl-5-[4-(trifluoromethyl)-2-pyridyl]-1,2,4-triazol-3-yl]pyridine-2-carboxamide]	≥ 80	≥ 80	mortality at 200 ppm [3]: ≥ 80%
CCS(=O)(=O)c1cc(N(C(=O)C2CC2)S(C)(=O)=O)cnc1-c1nnc(-c2cc(C(F)(F)F)ccn2)n1C [A20, N-[5-ethylsulfonyl-6-[4-methyl-5-[4-(trifluoromethyl)-2-pyridyl]-1,2,4-triazol-3-yl]-3-pyridyl]-N-methylsulfonyl-cyclopropanecarboxamide]			melting point: 229 to 231 °C
CCS(=O)(=O)c1cc(NC2(C#N)CC2)cnc1-c1nnc(-c2cc(C(F)(F)F)ccn2)n1C [A22, 1-[[5-ethylsulfonyl-6-[4-methyl-5-[4-(trifluoromethyl)-2-pyridyl]-1,2,4-triazol-3-yl]-3-pyridyl]amino]cyclopropanecarbonitrile]		≥ 80	
CCS(=O)(=O)c1cc(C(=O)NC2(C#N)CC2)cnc1-c1nnc(-c2cc(C(F)(F)F)ccn2)n1C [A23, N-(1-cyanocyclopropyl)-5-ethylsulfonyl-6-[4-methyl-5-[4-(trifluoromethyl)-2-pyridyl]-1,2,4-triazol-3-yl]pyridine-3-carboxamide]			melting point: 211 to 213 °C
CCS(=O)(=O)c1cc(N/C=N/OC)cnc1-c1nnc(-c2cc(C(F)(F)F)ccn2)n1C [A24, N-[5-ethylsulfonyl-6-[4-methyl-5-[4-(trifluoromethyl)-2-pyridyl]-1,2,4-triazol-3-yl]-3-pyridyl]-N′-methoxy-formamidine]		≥ 80	
CCS(=O)(=O)c1cc(N(C)/C=N/OC)cnc1-c1nnc(-c2cc(C(F)(F)F)ccn2)n1C [A25, N-[5-ethylsulfonyl-6-[4-methyl-5-[4-(trifluoromethyl)-2-pyridyl]-1,2,4-triazol-3-yl]-3-pyridyl]-N′-methoxy-N-methyl-formamidine]	≥ 80	≥ 80	
CCS(=O)(=O)c1ccc(N(CC(F)(F)F)C(=O)C2CC2)nc1-c1nnc(-c2cc(C(F)(F)F)ccn2)n1C [A29, N-[5-ethylsulfonyl-6-[4-methyl-5-[4-(trifluoromethyl)-2-pyridyl]-1,2,4-triazol-3-yl]-2-pyridyl]-N-(2,2,2-trifluoroethyl)cyclopropanecarboxamide]	≥ 80		mortality at 200 ppm [3]: ≥ 80%; percent effect (mortality or growth inhibition) at 200 ppm [4]: ≥ 80%; mortality at 200 ppm [5, 8]: ≥ 80%; percent effect (mortality or growth inhibition) at 200 ppm [6]: ≥ 80%
CCS(=O)(=O)c1cc(N(C)N(C)C(=O)C2CC2)cnc1-c1nnc(-c2cc(C(F)(F)F)ccn2)n1C [A31, N′-[5-ethylsulfonyl-6-[4-methyl-5-[4-(trifluoromethyl)-2-pyridyl]-1,2,4-triazol-3-yl]-3-pyridyl]-N,N′-dimethyl-cyclopropanecarbohydrazide]	≥ 80	≥ 80	
CCS(=O)(=O)c1cc(N)cnc1-c1nnc(-c2cc(C(F)(F)F)ccn2)n1C [A35, 5-ethylsulfonyl-6-[4-methyl-5-[4-(trifluoromethyl)-2-pyridyl]-1,2,4-triazol-3-yl]pyridin-3-amine]	≥ 80		
CCS(=O)(=O)c1ccc(N(C)C(=O)OC(C)(C)C)nc1-c1nnc(-c2cc(C(F)(F)F)ccn2)n1C [A38, Tert-Butyl N-[5-ethylsulfonyl-6-[4-methyl-5-[4-(trifluoromethyl)-2-pyridyl]-1,2,4-triazol-3-yl]-2-pyridyl]-N-methyl-carbamate]			percent control (mortality or growth inhibition) at 200 ppm [4]: ≥ 80%; mortality at 200 ppm [5]: ≥ 80%; percent control (mortality or growth inhibition) at 200 ppm [6]: ≥ 80%; mortality at 200 ppm [1]: ≥ 80%
CCS(=O)(=O)c1cc(N(C)C(=O)OC(C)(C)C)cnc1-c1nnc(-c2cc(C(F)(F)F)ccn2)n1C [A39, Tert-Butyl N-[5-ethylsulfonyl-6-[4-methyl-5-[4-(trifluoromethyl)-2-pyridyl]-1,2,4-triazol-3-yl]-3-pyridyl]-N-methyl-carbamate]			percent control (mortality or growth inhibition) at 200 ppm [4]: ≥ 80%; mortality at 200 ppm [5]: ≥ 80%; percent control (mortality or growth inhibition) at 200 ppm [6]: ≥ 80%
CCS(=O)(=O)c1ccc(NC)nc1-c1nnc(-c2cc(C(F)(F)F)ccn2)n1C [A41, 5-ethylsulfonyl-N-methyl-6-[4-methyl-5-[4-(trifluoromethyl)-2-pyridyl]-1,2,4-triazol-3-yl]pyridin-2-amine]	≥ 80	≥ 80	
